Earlier results on 20 molecules are cited in patent US20060111442A1, “Use of methyl pyruvate to increase cellular energy production downstream of glycolysis for the PARP-1 ablation of HIV without necrotic cell death caused by continuous, chronic PARP-1 activation through the concomitant depletion of ATP and NAD” (priority 2004, published 2006).

Like-named read-outs stand apart in the source and are kept apart here.

The target of series [1] is T1, PPARgamma (Homo sapiens, UniProt P37231).
T1 sequence (P37231 1-505): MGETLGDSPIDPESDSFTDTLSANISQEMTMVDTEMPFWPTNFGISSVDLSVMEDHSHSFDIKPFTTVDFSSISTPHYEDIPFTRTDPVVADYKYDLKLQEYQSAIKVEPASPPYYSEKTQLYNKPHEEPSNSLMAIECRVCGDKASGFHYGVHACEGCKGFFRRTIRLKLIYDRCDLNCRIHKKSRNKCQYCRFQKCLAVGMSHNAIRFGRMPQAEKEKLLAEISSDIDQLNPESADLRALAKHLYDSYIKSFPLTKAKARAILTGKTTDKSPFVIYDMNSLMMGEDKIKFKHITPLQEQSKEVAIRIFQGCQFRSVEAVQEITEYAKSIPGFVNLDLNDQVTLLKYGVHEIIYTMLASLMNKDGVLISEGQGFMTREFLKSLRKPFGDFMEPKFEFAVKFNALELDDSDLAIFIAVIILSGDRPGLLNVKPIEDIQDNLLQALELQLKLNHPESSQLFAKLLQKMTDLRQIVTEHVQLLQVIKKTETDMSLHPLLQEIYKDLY
Further details: expressed in transfected cells.

For a further series, the target named is T2, PPARalpha (Homo sapiens, UniProt Q07869).
T2 construct: expressed in transfected cells
T2 sequence (Q07869 whole entry, species assumed): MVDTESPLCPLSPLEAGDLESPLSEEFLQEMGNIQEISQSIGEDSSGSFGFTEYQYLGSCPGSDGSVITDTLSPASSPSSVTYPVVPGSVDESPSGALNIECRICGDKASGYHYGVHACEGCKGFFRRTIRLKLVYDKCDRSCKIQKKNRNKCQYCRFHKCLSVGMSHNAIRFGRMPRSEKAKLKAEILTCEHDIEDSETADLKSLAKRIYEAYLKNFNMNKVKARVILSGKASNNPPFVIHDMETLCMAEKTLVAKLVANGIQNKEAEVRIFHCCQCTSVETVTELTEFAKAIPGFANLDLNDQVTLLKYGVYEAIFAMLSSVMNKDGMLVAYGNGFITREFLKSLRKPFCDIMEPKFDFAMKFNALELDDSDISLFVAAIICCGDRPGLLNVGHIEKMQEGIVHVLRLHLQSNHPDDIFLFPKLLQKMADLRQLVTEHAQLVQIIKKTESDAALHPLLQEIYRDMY

Series [2] has as its system human neuroblastoma cells (SK-N-SH and SK-N-MC). The note with it: for 15-deoxy-PGJ2-induced cell growth inhibition: co-treatment.
The test system of series [3] is primary astrocyte cultures. Conditions: for MPT and cell death: after PARP-1 activation, cyclosporin A sub-micromolar.
For series [4], the system named is porcine carotid artery strips. Conditions: for change in resting tone: 10 mM KCl.
Series [5] relates to Mouse neuron and astrocyte cultures. Conditions: for Cell death: hydrogen peroxide, NMDA or MNNG exposure; for NAD(+) depletion resulting from PARP1 activation: MNNG or H(2)O(2); for poly(ADP-ribose) accumulation: during MNNG exposure, immunostaining.
The conditions of series [6]: 30 mg/kg i.p. 30 min prior to rosiglitazone.
Test in series [7]: not given
The source holds these as a separate data set.

Series [8] has as its system human non-small cell lung carcinoma cell lines (H1838 and H2106).
In series [9] the test system is human mammary tumour cell lines.
Series [10] deals with hepatic stellate cells (HSC).
Series [11] concerns the target T1, PPARgamma. Also noted: endogenous in cells; host or cells: human mammary tumour cell lines.
For series [12] the following is noted: mouse, in vivo.
A further series has as its system THP-1 monocytic cells. Conditions: PMA-stimulated.
The test system of series [13] is human glioblastoma cell lines (A172, U87-MG, M059K, M059J). Conditions: all cell lines.
Series [14] has as its system rat aortic vascular smooth muscle cell. The note with it: 0.1-10 microM.
For series [15] the following is noted: human, in vivo.

On to `CC(C)=CCC(=O)C1(O)C(O)=C(C(=O)C(C)C)C(=O)C1CC=C(C)C` (stereo not shown) [isocohumulone], for which the “activation of PPARgamma” value at PPARgamma [1] is “activate”. Moreover, on PPARalpha, the “activation of PPARalpha” value is recorded as “activate”.

For `COc1cccc(-c2cc(=O)c3ccccc3o2)c1N` [PD98059, 2′-amino-3′-methoxyflavone], the “15-deoxy-PGJ2-induced cell growth inhibition” value in [2] is recorded as “significantly prevented”.

Take cyclosporin A: in [3], the “translocation of the apoptosis-inducing factor from mitochondria to nuclei” value was “blocked translocation”; the “MPT and cell death” value was “blocked MPT and cell death”.

Consider `CN(C)C(=N)N=C(N)N` [metformin], for which the “HbA1c, insulin, and free fatty acid concentrations” value (8 mg rosiglitazone or 2 g metformin, 16 weeks) was “similarly decreased”. Also, the “Body weight at 16 weeks” value (2 g metformin, baseline 84+/−4, P<0.05) is 82 ± 4 kg. Besides, the “Serum adiponectin concentrations, increase” value (16 weeks) is reported as “remained unchanged”. The “Liver fat (proton spectroscopy) at 16 weeks” value (baseline 15+/−3 rosiglitazone, 13+/−3 metformin) is 14+/−3%.

As to `CC(O)C(=O)O` (stereo not shown) [lactate], in series [4] (10 mm in PSS), the “increase of O2 consumption” value is reported as “without effect”.

On to nobotanin B, for which, in series [5], the Cell death result is “equally reduced”.

Take `CC(C)(c1ccc(OCC2CO2)cc1)c1ccc(OCC2CO2)cc1` (stereo not shown) [BADGE, bisphenol A diglycidyl ether]: the “anti-inflammatory effects of rosiglitazone” value in series [6] is “abolished the anti-inflammatory effects”. The “protective effect of rosiglitazone or 15d-PGJ2 against gut I/R” value in series [7] (1 mg kg-1 i.v. 30 min prior to agonist) was “abolished the protective effect”.

Consider `O=C(OC[C@H]1O[C@@H](OC(=O)c2cc(O)c(O)c(OC(=O)c3cc(O)c(O)c(O)c3)c2)[C@H](OC(=O)c2cc(O)c(O)c(OC(=O)c3cc(O)c(O)c(O)c3)c2)[C@@H](OC(=O)c2cc(O)c(O)c(OC(=O)c3cc(O)c(O)c(O)c3)c2)[C@@H]1OC(=O)c1cc(O)c(O)c(OC(=O)c2cc(O)c(O)c(O)c2)c1)c1cc(O)c(O)c(OC(=O)c2cc(O)c(O)c(O)c2)c1` [gallotannin], for which, in [5], the “NAD(+) depletion resulting from PARP1 activation” value is listed as “prevented the NAD(+) depletion”, the “poly(ADP-ribose) accumulation” value is reported as “increase” and the Cell death entry was “equally reduced”.

On to `NC(=O)c1ccc[n+]([C@@H]2O[C@H](COP(=O)([O-])OP(=O)(O)OC[C@H]3O[C@@H](n4cnc5c(N)ncnc54)[C@H](O)[C@@H]3O)[C@@H](O)[C@H]2O)c1` [NAD(+)], for which, in series [3], the “translocation of the apoptosis-inducing factor from mitochondria to nuclei” value was “blocked translocation”; the “MPT and cell death” value is “blocked both MPT and cell death”. For the same molecule, the “glycolytic capacity and cell death” value in series [3] (10 mM extracellular NAD(+) after MNNG exposure) is “completely restored glycolytic capacity and prevented cell death”.

For `CCCC1([C@H](O)C/C=C/[C@H]2[C@H](O)CC(=O)[C@@H]2CCCCCCC(=O)OC)CCC1` [Butaprost], the cell growth entry in series [8] is given as “increased lung carcinoma cell growth”.

With `O=S(=O)(c1ccccc1)N(CC(F)(F)F)c1ccc(C(O)(C(F)(F)F)C(F)(F)F)cc1` [T0901317], in the series with LXR, the “suppressive effects of LXRs on PPARa-induced PPRE-luciferase activity” value is listed as “dose dependently enhanced”.

On to `O=C(Nc1ccccc1)c1cc([N+](=O)[O-])ccc1Cl` [GW9662, 2-chloro-5-nitro-N-henylbenzamide], for which the “growth of tumour cell lines” value in [9] is given as “inhibited growth”. Moreover, in series [9] (combination with rosiglitazone), the rosiglitazone-induced growth inhibition result is recorded as “enhanced rather than reversed”. For the same molecule, the “abrogation of suppression of HSC collagen by 15dPGJ(2)” value in series [10] (concomitant treatment) was 70%. The “15-deoxy-PGJ2-induced cell growth inhibition” value in series [2] is reported as “reversed”. Moreover, at PPARgamma [11], the “activation of PPARgamma” value is recorded as “prevented activation of PPARgamma”.

For the molecule `CC(C)=CCC(=O)C1(O)C(O)=C(C(=O)CC(C)C)C(=O)C1CC=C(C)C` (stereo not shown) [isohumulone], in series [12], the “body weight increase versus control group” value is recorded as “did not result in significant body weight gain”, the “reduced plasma free fatty acid level” value is 73.1%, the “reduced plasma glucose level” value is 65.3% and the “reduced plasma triglyceride level” value is 62.6%. Also, the “activation of PPARgamma” value on PPARgamma [1] is recorded as “activate”. At PPARalpha, the “activation of PPARalpha” value is “activate”.

As for `CN(CCOc1ccc(C[C@H](Nc2ccccc2C(=O)c2ccccc2)C(=O)O)cc1)c1ccccn1` [GW1929], in series [8], the “EP2 mRNA and protein levels” value is given as “significant decrease”; the cell growth result is recorded as “inhibition of cell growth”.

On to `[Cl-].[K+]` [KCl], for which the “change in resting tone” value was -0.8 ± 0.8 g in series [4] (glucose-PSS), 1.5 ± 0.7 g in series [4] (lactate-PSS) and -2.1 ± 0.8 g in series [4] (pyruvate-PSS).

For the molecule `CCCCC/C=C/C=C1/C(=O)C=C[C@@H]1C/C=C\CCCC(=O)O` [PGJ2, 15-deoxy-Delta12,14-prostaglandin J2], in the series on THP-1 monocytic cells, the “IL-1, IL-6 and TNFalpha secretion” value was “inhibitory effect”; the IL-1Ra production result is listed as “increasing IL-1Ra production”. Moreover, the “nitrotyrosine formation and ICAM-1 upregulation during reperfusion” value in series [7] (0.3 mg kg-1 i.v.) is on record as “markedly reduced”. Besides, the “fall in mean arterial blood pressure, mortality rate, MPO activity, MDA levels, TNF-alpha and IL-1 beta, histological gut injury” value in [7] (0.3 mg kg-1 i.v. 30 min prior to ischaemia) is recorded as “significantly reduced”. The “alpha1 (I) procollagen promoter activity” value in series [10] is listed as “inhibited”. The “HSC DNA and collagen synthesis” value in [10] (10 microm 15dPGJ(2), 0.1 approximately 10 microm BRL49653, WY14643 >100 microm, not <10 microm) is “inhibited DNA and collagen synthesis without affecting the cell viability”. In addition, in series [2], the induction of apoptosis result is “increased the induction of apoptosis in a dose-dependent manner”. In addition, the cell growth result in [2] (both cells) is “inhibited cell growth in time- and dose-dependent manners”. Besides, in series [13], the proliferation entry is listed as “inhibited proliferation”. Besides, in series [8], the “EP2 mRNA and protein levels” value is recorded as “significant decrease”; the cell growth entry was “inhibition of cell growth”.

For `O=C(O)c1c(Sc2ccccc2)c2cc(Cl)ccc2n1Cc1ccc(Cl)cc1` [nTZDpa], the apoptosis entry in the series on human coronary VSMCs is listed as “induce caspase-mediated apoptosis”. Besides, the “vascular smooth muscle cell growth” value in series [14] is reported as “inhibited vascular smooth muscle cell growth”.

As for `CC(C)CC[C@@H](O)[C@@H](C)[C@H]1CC[C@H]2[C@@H]3CC=C4C[C@@H](O)CC[C@]4(C)[C@H]3CC[C@]12C` [22(R)-hydroxycholesterol], in the series on LXR, the “suppressive effects of LXRs on PPARa-induced PPRE-luciferase activity” value is “dose dependently enhanced”.

Take `NC(=O)c1ccccc1` [benzamide]: in series [5], the “NAD(+) depletion resulting from PARP1 activation” value is listed as “prevented the NAD(+) depletion”, the “poly(ADP-ribose) accumulation” value is “decrease” and the Cell death result was “markedly reduced”.

For the molecule `CN(CCOc1ccc(CC2SC(=O)NC2=O)cc1)c1ccccn1` (stereo not shown) [rosiglitazone], the “blood counts, viral loads, CD4 counts” value in series [15] is “no significant changes”.
